Assay: Standing of the crystalline form at room temperature (polymorph stability)
Format: physicochemical
Conditions: standing at the condition of room temperature for one week; monohydrochloride

Row | SMILES | stability of the crystalline form (polymorphic conversion)
1 | CCCn1cc(C)c2c(=O)[nH]c(-c3cc(S(=O)(=O)N4CCN(CC)CC4)ccc3OCC)nc21.Cl [B-type polymorphic substance of yonkenafil hydrochloride] [2-[2-ethoxy-5-(4-ethylpiperazine-1-sulfonyl)phenyl]-5-methyl-7-n-propyl-3,7-dihydropyrrolo[2,3-d]pyrimidin-4-one monohydrochloride] | can be converted into the A-type polymorphic substance of yonkenafil hydrochloride
2 | CCCn1cc(C)c2c(=O)[nH]c(-c3cc(S(=O)(=O)N4CCN(CC)CC4)ccc3OCC)nc21.Cl [A-type polymorphic substance of yonkenafil hydrochloride] [2-[2-ethoxy-5-(4-ethylpiperazine-1-sulfonyl)phenyl]-5-methyl-7-n-propyl-3,7-dihydropyrrolo[2,3-d]pyrimidin-4-one monohydrochloride] | more stable than the B-type polymorphic substance of yonkenafil hydrochloride
